Patent US9790215B2 (FLATLEY DISCOVERY LAB, LLC, priority 2013, dated 2017)
pEC50: −log10 of the molar value.

Biological target: T1, human ΔF508-CFTR (Homo sapiens, UniProt P13569, DEL508-508)
T1 construct: expressed in transfected cells
Assay: CFTR-YFP High Throughput Assay (YFP halide flux in FRT cells)
Format: cell-based
Conditions: FRT cells expressing human ΔF508-CFTR and YFP; forskolin stimulated
Experimental: Assays for Detecting and Measuring the Effect of Compounds on dF508-CFTR Channels CFRT-YFP High Throughput Assay:
The following protocol is designed to selectively screen small molecule compounds for F508del CFTR corrector activities in the HTS YFP flux assay. In this protocol, the cells are incubated with testing compounds for 24 hours, washed with PBS, stimulated with forskolin and a standard potentiator, and read on a 384-well HTS plate reader, such as the Hamamatsu FDDD-6000.
(§1) YFP fluorescence intensity is acquired at high speed before and after iodide buffer is injected to the assay cells. Iodide enters the cells via active CFTR channels in the plasma membrane, and quenches the YFP fluorescence. The rate of fluorescence quenching is proportionally related to the total CFTR activities in the cell membrane. dF508-CFTR corrector accelerates YFP quenching by increasing the number of CFTR molecules in the testing cell plasma membrane.
This method was initially developed for bench top plate readers (Galietta et al., 2001), and was adapted to the HTS format (Sui et al. Assay Drug Dev. Technol. 2010).
Fisher Rat Thyroid (FRT) cells stably expressing both human AF508-CFTR and a halide-sensitive yellow fluorescent protein (YFP—H148Q/1152L 25, 22) (Galietta et al., Am. J. Physiol Cell Physiol 281(5), C1734, 2001) were cultured on plastic surface in Coon's modified Ham's F12 medium supplemented with FBS 10%, L-glutamine 2 mM, penicillin 100 U/mL, and streptomycin 100 μg/mL. G418 (0.75-1.0 mg/mL) and zeocin (3.2 ug/mL) were used for selection of FRT cells expressing ΔF508-CFTR and YFP. For primary screening, FRT cells were plated into 384-well black wall, transparent bottom microtiter plates (Costar; Corning Inc.) at a cell density of 20,000-40,000 per well. Test compound was applied to the cells at varying concentrations ranging from […] in either a 2-fold or 3-fold dilution series. Cells were incubated in a cell culture incubator at 37° C. with 5% CO2 for 24-26 h. Assay plates were washed with DPBS media (Thermo, cat# SH30028.02) to remove unbound cells and compound. Stimulation media (25 μL) containing 20 μM Forskolin & 30 μM P3 [6-(Ethyl-phenyl-sulfonyl)-4-oxo-1,4-dihydro-quinoline-3-carboxylic acid 2-methoxy-benzylamide] in Hams F-12 coon's modified media was added to the plate wells and incubated at room temperature for 60-120 min. 25 μL of HEPES-PBS-I buffer (10 mM HEPES, 1 mM MgCl2, 3 mM KCl, 1 mM CaCl2, 150 mM NaI) was then added and fluorescence quench curves (Excitation 500 nm/Emission 540 nm; exposure 136 ms) were immediately recorded on an FDSS-6000 plate reader (Hamamatsu). Quench rates were derived from least squares fitting of the data as described by Sui et al., (2010).
The following protocol is designed to selectively screen small molecule compounds for F508del CFTR potentiator activities in the HTS YFP flux assay. In this protocol, the cells are incubated at 27 C for 24 hours with homogeneously boosted dF508-CFTR expression in the cell membrane by the low temperature, washed with PBS, stimulated with forskolin, and read on a 384-well HTS plate reader, such as the Hamamatsu FDDD-6000.
as §1, with “dF508del-CFTR potentiators accelerate” for “dF508-CFTR corrector accelerates”, “increasing” for “increasing the number of”, “activities” for “molecules”
Fisher Rat Thyroid (FRT) cells stably expressing both human ΔF508-CFTR and a halide-sensitive yellow fluorescent protein (YFP-H148Q/I152L 25, 22) (Galietta et al., Am. J. Physiol Cell Physiol 281(5), C1734, 2001) were cultured on plastic surface in Coon's modified Ham's F12 medium supplemented with FBS 10%, L-glutamine 2 mM, penicillin 100 U/mL, and streptomycin 100 μg/mL. […]

T1 sequence (P13569 with tags, fused parts or gaps DEL508-508): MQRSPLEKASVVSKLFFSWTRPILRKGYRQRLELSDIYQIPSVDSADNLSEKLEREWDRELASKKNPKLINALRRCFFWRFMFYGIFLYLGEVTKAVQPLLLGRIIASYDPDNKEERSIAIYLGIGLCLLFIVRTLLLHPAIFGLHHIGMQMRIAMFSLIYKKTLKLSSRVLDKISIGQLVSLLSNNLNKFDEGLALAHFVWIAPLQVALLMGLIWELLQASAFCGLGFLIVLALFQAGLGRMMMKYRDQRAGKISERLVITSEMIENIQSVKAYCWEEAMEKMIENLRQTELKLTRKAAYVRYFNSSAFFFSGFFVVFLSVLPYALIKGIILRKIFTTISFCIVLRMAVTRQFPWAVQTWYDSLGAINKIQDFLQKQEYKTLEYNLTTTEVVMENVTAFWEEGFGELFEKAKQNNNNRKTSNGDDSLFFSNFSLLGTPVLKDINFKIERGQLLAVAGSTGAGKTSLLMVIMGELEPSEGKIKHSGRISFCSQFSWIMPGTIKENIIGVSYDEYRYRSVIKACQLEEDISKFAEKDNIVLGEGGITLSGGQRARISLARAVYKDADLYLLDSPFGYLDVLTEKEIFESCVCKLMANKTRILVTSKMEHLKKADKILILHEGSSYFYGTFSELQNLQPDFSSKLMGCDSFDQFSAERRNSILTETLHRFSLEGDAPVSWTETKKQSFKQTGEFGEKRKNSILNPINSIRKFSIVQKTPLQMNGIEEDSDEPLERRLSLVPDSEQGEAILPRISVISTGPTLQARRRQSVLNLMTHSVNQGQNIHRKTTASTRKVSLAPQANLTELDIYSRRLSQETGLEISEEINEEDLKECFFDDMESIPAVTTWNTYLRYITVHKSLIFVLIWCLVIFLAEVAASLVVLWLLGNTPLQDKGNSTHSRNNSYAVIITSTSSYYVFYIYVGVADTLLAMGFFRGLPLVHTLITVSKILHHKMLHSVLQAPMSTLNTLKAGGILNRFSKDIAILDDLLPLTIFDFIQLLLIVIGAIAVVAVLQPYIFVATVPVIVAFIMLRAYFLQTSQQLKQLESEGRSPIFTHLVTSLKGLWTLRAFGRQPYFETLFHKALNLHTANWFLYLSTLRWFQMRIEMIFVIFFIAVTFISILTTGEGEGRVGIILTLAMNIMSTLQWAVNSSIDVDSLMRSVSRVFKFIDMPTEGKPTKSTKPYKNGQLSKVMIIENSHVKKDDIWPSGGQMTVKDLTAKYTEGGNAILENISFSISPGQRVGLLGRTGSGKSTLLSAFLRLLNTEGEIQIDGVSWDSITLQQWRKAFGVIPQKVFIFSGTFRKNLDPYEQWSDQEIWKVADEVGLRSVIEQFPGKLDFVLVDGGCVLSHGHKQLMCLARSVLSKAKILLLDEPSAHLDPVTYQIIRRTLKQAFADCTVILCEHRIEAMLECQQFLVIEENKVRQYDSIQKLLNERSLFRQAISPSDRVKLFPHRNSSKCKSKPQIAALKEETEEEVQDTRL

pEC50	Structure (SMILES)
< 4.70	CCc1ccc(N(CC)C(=O)Cn2nc(Cc3cccnc3)c3cnccc3c2=O)cc1 [Example 42, N-ethyl-N-(4-ethylphenyl)-2-(1-oxo-4-(pyridin-3-ylmethyl)pyrido[3,4-d]pyridazin-2(1H)-yl)acetamide]
4.70 to 5.00	CCc1ccc(N(CC)C(=O)Cn2nc(Cc3cccnc3)c3ncccc3c2=O)cc1 [Example 43, N-ethyl-N-(4-ethylphenyl)-2-(5-oxo-8-(pyridin-3-ylmethyl)pyrido[2,3-d]pyridazin-6(5H)-yl)acetamide]
> 5.00	CCN(C(=O)Cn1nc(Cc2cccnc2)c2cccc(C)c2c1=O)c1ccc2c(c1)OC(F)(F)O2 [Example 47, N-(2,2-difluorobenzo[d][1,3]dioxol-5-yl)-N-ethyl-2-(8-methyl-1-oxo-4-(pyridin-3-ylmethyl)phthalazin-2(1H)-yl)acetamide]
> 5.00	CCN(C(=O)Cn1nc(Cc2cccnc2)c2c(C)cccc2c1=O)c1ccc2c(c1)OC(F)(F)O2 [Example 48, N-(2,2-difluorobenzo[d][1,3]dioxol-5-yl)-N-ethyl-2-(5-methyl-1-oxo-4-(pyridin-3-ylmethyl)phthalazin-2(1H)-yl)acetamide]
> 5.00	CCN(C(=O)Cn1nc(Cc2cccnc2)c2cc(C(C)(C)C)ccc2c1=O)c1ccc2c(c1)OC(F)(F)O2 [Example 49, 2-(6-(tert-butyl)-1-oxo-4-(pyridin-3-ylmethyl)phthalazin-2(1H)-yl)-N-(2,2-difluorobenzo[d][1,3]dioxol-5-yl)-N-ethylacetamide]
> 5.00	CCN(C(=O)Cn1nc(Cc2cccnc2)c2ccc(C(C)(C)C)cc2c1=O)c1ccc2c(c1)OC(F)(F)O2 [Example 50, 2-(7-(tert-butyl)-1-oxo-4-(pyridin-3-ylmethyl)phthalazin-2(1H)-yl)-N-(2,2-difluorobenzo[d][1,3]dioxol-5-yl)-N-ethylacetamide]
> 5.00	CCN(C(=O)Cn1nc(Cc2cccnc2)c2ccc(OC)cc2c1=O)c1ccc2c(c1)OC(F)(F)O2 [Example 52, N-(2,2-difluorobenzo[d][1,3]dioxol-5-yl)-N-ethyl-2-(7-methoxy-1-oxo-4-(pyridin-3-ylmethyl)phthalazin-2(1H)-yl)acetamide]
> 5.00	CCN(C(=O)Cn1nc(Cc2cccnc2)c2ccc(Cl)cc2c1=O)c1ccc2c(c1)OC(F)(F)O2 [Example 54, 2-(7-chloro-1-oxo-4-(pyridin-3-ylmethyl)phthalazin-2(1H)-yl)-N-(2,2-difluorobenzo[d][1,3]dioxol-5-yl)-N-ethylacetamide]
> 5.00	CCN(C(=O)Cn1nc(Cc2cccnc2)c2cccc(OC)c2c1=O)c1ccc2c(c1)OC(F)(F)O2 [Example 55, N-(2,2-difluorobenzo[d][1,3]dioxol-5-yl)-N-ethyl-2-(8-methoxy-1-oxo-4-(pyridin-3-ylmethyl)phthalazin-2(1H)-yl)acetamide]

Further lines, the compound ahead of its results:

Structure (SMILES)	pEC50
CCc1ccc(N(CC)C(=O)Cn2nc(Cc3cccnc3)c3cc(OC)ccc3c2=O)cc1 [Example 36, N-ethyl-N-(4-ethylphenyl)-2-(6-methoxy-1-oxo-4-(pyridin-3-ylmethyl)phthalazin-2(1H)-yl)acetamide]	> 5.00
CCc1ccc(N(CC)C(=O)Cn2nc(Cc3cccnc3)c3cccc(F)c3c2=O)cc1 [Example 37, N-ethyl-N-(4-ethylphenyl)-2-(8-fluoro-1-oxo-4-(pyridin-3-ylmethyl)phthalazin-2(1H)-yl)acetamide]	> 5.00
CCc1ccc(N(CC)C(=O)Cn2nc(Cc3cccnc3)c3cc(Cl)c(Cl)cc3c2=O)cc1 [Example 38, 2-(6,7-dichloro-1-oxo-4-(pyridin-3-ylmethyl)phthalazin-2(1H)-yl)-N-ethyl-N-(4-ethylphenyl)acetamide]	< 4.70
CCc1ccc(N(CC)C(=O)Cn2nc(Cc3cccnc3)c3ccc(Cl)cc3c2=O)cc1 [Example 39, 2-(7-chloro-1-oxo-4-(pyridin-3-ylmethyl)phthalazin-2(1H)-yl)-N-ethyl-N-(4-ethylphenyl)acetamide]	> 5.00
CCc1ccc(N(CC)C(=O)Cn2nc(Cc3cccnc3)c3cc(Cl)ccc3c2=O)cc1 [Example 40, 2-(6-chloro-1-oxo-4-(pyridin-3-ylmethyl)phthalazin-2(1H)-yl)-N-ethyl-N-(4-ethylphenyl)acetamide]	> 5.00
CCc1ccc(N(CC)C(=O)Cn2nc(Cc3cccnc3)c3ccncc3c2=O)cc1 [Example 41, N-ethyl-N-(4-ethylphenyl)-2-(4-oxo-1-(pyridin-3-ylmethyl)pyrido[3,4-d]pyridazin-3(4H)-yl)acetamide]	< 4.70
CCN(C(=O)Cn1nc(Cc2cccnc2)c2cc(OC)c(OC)cc2c1=O)c1ccc2c(c1)OC(F)(F)O2 [Example 44]	> 5.00
CCN(C(=O)Cn1nc(Cc2cccnc2)c2ccc(C)cc2c1=O)c1ccc2c(c1)OC(F)(F)O2 [Example 45, N-(2,2-difluorobenzo[d][1,3]dioxol-5-yl)-N-ethyl-2-(7-methyl-1-oxo-4-(pyridin-3-ylmethyl)phthalazin-2(1H)-yl)acetamide]	> 5.00
CCN(C(=O)Cn1nc(Cc2cccnc2)c2cc(C)ccc2c1=O)c1ccc2c(c1)OC(F)(F)O2 [Example 46, N-(2,2-difluorobenzo[d][1,3]dioxol-5-yl)-N-ethyl-2-(6-methyl-1-oxo-4-(pyridin-3-ylmethyl)phthalazin-2(1H)-yl)acetamide]	> 5.00
CCN(C(=O)Cn1nc(Cc2cccnc2)c2cc(OC)ccc2c1=O)c1ccc2c(c1)OC(F)(F)O2 [Example 51, N-(2,2-difluorobenzo[d][1,3]dioxol-5-yl)-N-ethyl-2-(6-methoxy-1-oxo-4-(pyridin-3-ylmethyl)phthalazin-2(1H)-yl)acetamide]	> 5.00
CCN(C(=O)Cn1nc(Cc2cccnc2)c2cc(Cl)ccc2c1=O)c1ccc2c(c1)OC(F)(F)O2 [Example 53, 2-(6-chloro-1-oxo-4-(pyridin-3-ylmethyl)phthalazin-2(1H)-yl)-N-(2,2-difluorobenzo[d][1,3]dioxol-5-yl)-N-ethylacetamide]	> 5.00
CCN(C(=O)Cn1nc(Cc2cccnc2)c2c(OC)cccc2c1=O)c1ccc2c(c1)OC(F)(F)O2 [Example 56, N-(2,2-difluorobenzo[d][1,3]dioxol-5-yl)-N-ethyl-2-(5-methoxy-1-oxo-4-(pyridin-3-ylmethyl)phthalazin-2(1H)-yl)acetamide]	> 5.00
CCOc1cccc2c(Cc3cccnc3)nn(CC(=O)N(CC)c3ccc4c(c3)OC(F)(F)O4)c(=O)c12 [Example 57, N-(2,2-difluorobenzo[d][1,3]dioxol-5-yl)-N-ethyl-2-(8-ethoxy-1-oxo-4-(pyridin-3-ylmethyl)phthalazin-2(1H)-yl)acetamide]	> 5.00
CCOc1cccc2c(=O)n(CC(=O)N(CC)c3ccc4c(c3)OC(F)(F)O4)nc(Cc3cccnc3)c12 [Example 58, N-(2,2-difluorobenzo[d][1,3]dioxol-5-yl)-N-ethyl-2-(5-ethoxy-1-oxo-4-(pyridin-3-ylmethyl)phthalazin-2(1H)-yl)acetamide]	4.70 to 5.00
CCN(C(=O)Cn1nc(Cc2cccnc2)c2cccc(OC3CCCCC3)c2c1=O)c1ccc2c(c1)OC(F)(F)O2 [Example 59, 2-(8-(cyclohexyloxy)-1-oxo-4-(pyridin-3-ylmethyl)phthalazin-2(1H)-yl)-N-(2,2-difluorobenzo[d][1,3]dioxol-5-yl)-N-ethylacetamide]	> 5.00
